Data on four compounds can be found in patent publication US9676752B2, “Imidazolidine-2,4-dione derivatives” (IPSEN PHARMA S.A.S., priority 2013, dated 2017).

Broadly, the solubility is how much of the substance goes into solution per volume. A lower solubility goes with little dissolved substance. For orientation: pIC50 means the IC50 on a negative log10 scale, so that one unit is a factor of ten. A high value points to a small IC50.

A short description of data set [1]: Evaluation of solubility in potassium phosphate buffer pH 7.4. The following applies: aqueous buffer, kinetic from dmso stock; 100 mM potassium phosphate buffer pH 7.4, target 10 μM, 0.1% DMSO, 1 hour room temperature, LC-MS/MS. The format is physicochemical. The protocol: Evaluation of Solubility:
Test compounds were prepared as stock solutions at […] in DMSO. The stock solutions were diluted, in duplicate, into 100 mM potassium phosphate buffer (pH 7.4) to a target concentration of 10 μM with a final DMSO concentration of 0.1%. The solutions were shaken at 1000 rpm for 1 hour at room temperature followed by centrifugation for 10 minutes at 1200 rpm to precipitate un-dissolved particles. The supernatants were transferred to new tubes and the samples were further prepared as follows: • Undiluted: 5 μL of supernatant to 95 μL of ACN containing internal standard (IS) • 1:10 diluted: 10 μL of the supernatant into 90 μL K-buffer, mix, then transfer 5 μL of 1:10 diluted samples to 95 μL ACN containing IS • 1:100 diluted: 10 μL of the supernatant into 990 μL K-buffer, mix, then transfer 5 μL of 1:100 diluted samples to 95 μL of ACN containing IS
Samples (undiluted, 1:10 diluted, and 1:100 diluted) along with the standards were analyzed by LC-MS/MS.

Data set [2] relates to DU145. The experiment in a line: Anti-proliferative activity on DU145 in complete medium. The format is cell-based. The following applies: Homo sapiens, DU-145, 144 h incubation, Cell-Titer-Glow, line does not express androgen receptor. How it is done:
2. Anti-Proliferative Activity on DU145 in Complete Medium
(§1) It is used to evaluate the selectivity of the compounds for androgen receptor expressing cells. No activity of the compounds is expected. • The cells of the DU145 line (ATCC HTB-81) are seeded at 800 cells/well in 90 μl of complete medium in 96-well plates coated with poly-D-lysine (Biocoat, Costar). • Treatment of the cells: 24 h after the seeding, the cells are treated with 10 μl/well of compound diluted in the culture medium. The concentrations used are the following: 1 nM/10/30/100/300/1000/3000/10,000 nM. The cells are incubated for 144 h at 37° C., 5% CO2. • Reading: After incubation for 6 days, cell proliferation was determined by Cell-Titer-Glow (CTG) Luminescent Cell Viability Assay • Results: The experiments are carried out in duplicate and the best compounds are tested twice. A concentration value inhibiting the cell proliferation by 50% (IC50) is calculated.

Data set [3] relates to LNCaP. In words: Anti-proliferative activity on LNCaP in complete medium. The format is cell-based. The conditions noted are these: Homo sapiens, 144 h incubation, Cell-Titer-Glow. How it is done:
1. Anti-Proliferative Activity on LNCaP in Complete Medium
The anti-proliferative activity of the compounds of the present invention is determined on LNCaP in complete medium by applying the following experimental procedure:
The LNCaP cell type (ATCC, 1740) originates from a prostate carcinoma. This line expresses the androgen receptor and is hormone-dependent.
Maintenance of the LNCaP line is carried out in complete culture medium: RPMI, 10% of fetal calf serum, 2 mM glutamine, 100 U/ml penicillin, 0.1 mg/ml of streptomycin and 0.01M HEPES, 1 mM sodium pyruvate, […] of D-glucose. • Seeding the plates: The LNCaP line is seeded at 20,000 cells/well in 90 μl of complete medium in 96-well plates coated with poly-D-lysine (Biocoat, Costar). • Treatment of the cells: 24 h after the seeding, the cells are treated with 10 μl/well of compound diluted in the culture medium. The concentrations used are the following: 1 nM/10/30/100/300/1000/3000/10,000 nM. The cells are incubated for 144 h at 37° C., 5% CO2. • Reading: After incubation for 6 days, cell proliferation was determined by Cell-Titer-Glow (CTG) Luminescent Cell Viability Assay. • Results: The experiments are carried out in duplicate and the best compounds are tested twice. A concentration value inhibiting the cell proliferation by 50% (IC50) is calculated.

Data set [4] has as its system human prostate cancer cells. The conditions noted are these: agonist activity in place of antagonist activity; cited from earlier work.
In data set [5] the test system is VCaP. In words: Anti-proliferative activity on VCaP in complete medium. The format is cell-based. The conditions noted are these: Homo sapiens, 216 h, Cell-Titer-Glow, reading after 9 days. The protocol:
as §1, with “3. Anti-Proliferative Activity on VCaP in Complete Medium •” for “It is used to evaluate the selectivity of the compounds for androgen receptor expressing cells. No activity of the compounds is expected. •”, “the VCaP” for “the DU145”, “(ATCC CRL-2876)” for “(ATCC HTB-81)”, “at 20000” for “at 800”, “for […]” for “for 6”

The target of data set [6] is T1, androgen receptor (Homo sapiens, UniProt P10275, T878A).
T1 construct: This line expresses the androgen receptor and is hormone-dependent; endogenous in cells; host or cells: LNCaP (ATCC, 1740)
T1 sequence (P10275 1-920 T878A): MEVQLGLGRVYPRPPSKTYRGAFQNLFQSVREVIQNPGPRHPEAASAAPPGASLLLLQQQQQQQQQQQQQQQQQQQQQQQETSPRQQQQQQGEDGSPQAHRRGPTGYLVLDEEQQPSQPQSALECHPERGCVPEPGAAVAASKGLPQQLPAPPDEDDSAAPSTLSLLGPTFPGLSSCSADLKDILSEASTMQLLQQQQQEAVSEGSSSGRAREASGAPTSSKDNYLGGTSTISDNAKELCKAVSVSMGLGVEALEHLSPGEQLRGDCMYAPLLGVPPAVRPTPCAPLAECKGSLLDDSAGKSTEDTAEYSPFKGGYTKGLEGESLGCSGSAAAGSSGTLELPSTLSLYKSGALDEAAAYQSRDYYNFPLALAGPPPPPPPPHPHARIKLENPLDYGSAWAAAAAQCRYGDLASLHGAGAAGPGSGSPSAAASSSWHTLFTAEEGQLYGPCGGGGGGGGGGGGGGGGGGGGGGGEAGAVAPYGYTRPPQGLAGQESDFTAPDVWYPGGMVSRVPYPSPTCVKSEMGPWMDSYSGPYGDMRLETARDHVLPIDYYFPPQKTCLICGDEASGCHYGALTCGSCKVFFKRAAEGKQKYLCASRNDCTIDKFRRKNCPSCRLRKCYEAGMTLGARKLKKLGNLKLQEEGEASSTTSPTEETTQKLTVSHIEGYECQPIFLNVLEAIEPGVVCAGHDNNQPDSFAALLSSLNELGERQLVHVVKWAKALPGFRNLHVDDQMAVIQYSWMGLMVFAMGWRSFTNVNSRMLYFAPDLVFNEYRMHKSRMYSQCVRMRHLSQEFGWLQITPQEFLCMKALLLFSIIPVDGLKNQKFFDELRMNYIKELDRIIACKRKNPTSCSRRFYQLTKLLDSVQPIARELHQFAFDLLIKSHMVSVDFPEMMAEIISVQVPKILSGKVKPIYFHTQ
The experiment in a line: Measurement of protein expression of the androgen receptor in LNCaP cells (AR ELISA). The format is cell-based. The following applies: 3 days treatment, whole cell protein, AR ELISA kit; read-out: IC50 AR destruction in LNCaP. The protocol:
Measurement of Protein Expression of the Androgen Receptor
The cells of the LNCaP line are seeded at a rate of 2.5 million of cells per 10 cm Petri dish and maintained in 8 ml RPMI-1640 for 4 days. After 4 days incubation, 4 ml of medium were removed from the Petri dish and 5 ml fresh medium was added carefully. 1 ml of compounds 10-fold diluted in complete medium at concentrations from 3×10^-6 M to 10^-8 M. Cells were treated with the compounds for additional 3 days. The whole cell protein was extracted by Nuclear Extract kit and quantitated by the Bradford Protein Assay. The effect of compounds on AR levels in LNCaP cells was then determined by an AR ELISA kit.
In general terms: ELISA stands for enzyme-linked immunosorbent assay.

Molecules are shown by their SMILES. pIC50: −log10 of the molar value. ≈ marks a conversion by molar mass, not a printed value. Bounds are passed on as bounds.

Consider `CC1(C)C(=O)N(c2ccc(C#N)c(C(F)(F)F)c2)C(=O)N1C/C=C\CN1CC(=O)N(c2ccc(S(C)(=O)=O)c(C(F)(F)F)c2)C1=O` [Example 3, (Z)-4-(4,4-dimethyl-3-(4-(3-(4-(methylsulfonyl)-3-(trifluoromethyl)phenyl)-2,4-dioxoimidazolidin-1-yl)but-2-en-1-yl)-2,5-dioxoimidazolidin-1-yl)-2-(trifluoromethyl)benzonitrile], for which the solubility at 1 h in data set [1] was found to be 0.53 µM (≈ 0.356 µg/mL). Moreover, the negative logarithm of the IC50 (pIC50) was less than 5.00 in data set [2] and 5.95 in data set [3].

As for `CC1(C)NC(=O)N(c2ccc([N+](=O)[O-])c(C(F)(F)F)c2)C1=O` [nilutamide], the “effect on growth of human prostate cancer cells in culture” value in data set [4] was “capable of stimulating the growth”.

With `CC1(C)C(=O)N(c2ccc(S(C)(=O)=O)c(C(F)(F)F)c2)C(=O)N1C/C=C\CN1C(=O)N(c2cnc(C#N)c(C(F)(F)F)c2)C(=O)C1(C)C` [Example 2, (Z)-5-(3-(4-(5,5-dimethyl-3-(4-(methylsulfonyl)-3-(trifluoromethyl)phenyl)-2,4-dioxoimidazolidin-1-yl)but-2-en-1-yl)-4,4-dimethyl-2,5-dioxoimidazolidin-1-yl)-3-(trifluoromethyl)picolinonitrile], the solubility at 1 h in data set [1] came out at 0.14 µM (≈ 0.0981 µg/mL). Besides, the figures for the negative logarithm of the IC50 (pIC50) in data set [2], in data set [5] and in data set [3] were less than 5.00, 5.98 and 5.80, respectively. The DC50 in data set [6] amounted to 946 nM.

`CC1(C)C(=O)N(c2ccc(C#N)c(C(F)(F)F)c2)C(=O)N1C/C=C\CN1C(=O)N(c2ccc(S(C)(=O)=O)c(C(F)(F)F)c2)C(=O)C1(C)C` [Example 1, (Z)-4-(3-(4-(5,5-dimethyl-3-(4-(methylsulfonyl)-3-(trifluoromethyl)phenyl)-2,4-dioxoimidazolidin-1-yl)but-2-en-1-yl)-4,4-dimethyl-2,5-dioxoimidazolidin-1-yl)-2-(trifluoromethyl)benzonitrile] gave a solubility at 1 h in data set [1] of 2.66 µM (≈ 1.86 µg/mL). Besides, the results for the negative-log IC50 (pIC50) in data set [2], in data set [5] and in data set [3] were less than 5.00, 6.26 and 6.50, respectively. The DC50 in data set [6] is 123 nM.
